These compounds were tested on blood-brain barrier (assay: Enhancement of blood-brain barrier permeation of P-glycoprotein substrate compounds by piperine). Settings: P-glycoprotein substrate compound combined with piperine.

Row | Structure (SMILES) | Permeation across the blood-brain barrier / bioavailability when combined with piperine
1 | CC(/C=C/C=C(\C)C(=O)O)=C\C=C\C=C(C)\C=C\C=C(/C)C(=O)O [crocetin] | enhanced
2 | CC(/C=C/C=C(\C)C(=O)O[C@@H]1O[C@H](CO[C@@H]2O[C@H](CO)[C@@H](O)[C@H](O)[C@H]2O)[C@@H](O)[C@H](O)[C@H]1O)=C\C=C\C=C(C)\C=C\C=C(/C)C(=O)O[C@@H]1O[C@H](CO[C@@H]2O[C@H](CO)[C@@H](O)[C@H](O)[C@H]2O)[C@@H](O)[C@H](O)[C@H]1O [crocin] | enhanced
3 | CC1=C(C)C(=O)O[C@@H]([C@](C)(O)[C@H]2CC[C@H]3[C@@H]4[C@@H]5O[C@@H]5[C@@]5(O)CC=CC(=O)[C@]5(C)[C@H]4CC[C@]23C)C1 [withanolide A] | enhanced
4 | CC1=C(C)C(=O)O[C@@H]([C@@H](C)[C@@]2(O)CC[C@H]3[C@@H]4[C@@H]5O[C@@H]5[C@@]5(O)CC=CC(=O)[C@]5(C)[C@H]4CC[C@@]32C)C1 [withanone] | enhanced

Reference: patent publication US20260272869A1, “ORAL COMPOSITION COMPRISING L-THEANINE” (NICOVENTURES TRADING LIMITED, priority 2023, published 2026)
